In general, IC50 refers to the concentration that gives 50% inhibition. The low end stands for higher potency, the high end for lower potency.

Drawing on US11472811B2, “Pyrazolotriazolopyrimidine derivatives as A2A receptor antagonist” (BEIGENE, LTD., priority 2018, dated 2022), this text covers IC50 for 27 compounds.

In this assay the target is human A2A receptor (A2AR) (Homo sapiens (Human), UniProt P29274). Put plainly: Luciferase reporter assay (HEK293-A2AR-luc2p/CRE/Hygro cells). It is filed as cell-based. The settings on record: 3 nM CGS21680, 5 h incubation. Put shortly: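 HEK293 cells stably expressing human A2AR and a CRE-luc2P reporter were seeded in 1% FBS with 1 U/mL adenosine deaminase. After 18 h they were stimulated 5 h with 3 nM CGS21680 plus compound (0.1–10000 nM), then luciferase luminescence was read. IC50 was taken from inhibition curves, with CGS21680 alone set as 100%.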
Chain of human A2A receptor (A2AR) (P29274 whole entry): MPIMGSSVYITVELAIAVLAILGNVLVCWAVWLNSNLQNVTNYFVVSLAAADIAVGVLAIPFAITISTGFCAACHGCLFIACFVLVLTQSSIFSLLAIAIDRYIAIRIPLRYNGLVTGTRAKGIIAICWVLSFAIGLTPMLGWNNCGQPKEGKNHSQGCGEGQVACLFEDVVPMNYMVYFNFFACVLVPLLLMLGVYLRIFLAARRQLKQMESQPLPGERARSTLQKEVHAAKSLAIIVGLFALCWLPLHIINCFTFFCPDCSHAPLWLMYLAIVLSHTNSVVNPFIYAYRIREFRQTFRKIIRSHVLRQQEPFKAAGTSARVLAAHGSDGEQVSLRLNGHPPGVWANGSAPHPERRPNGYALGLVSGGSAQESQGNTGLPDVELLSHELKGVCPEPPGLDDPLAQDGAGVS
On the technique in general: A reporter such as luciferase makes a cellular process visible.
The compound `C[C@@H](O)CNC(=O)C(C)(c1ccccc1)n1ncc2c1nc(N)n1nc(-c3ccco3)nc21` (stereo partly drawn) [Example 38, 2-(5-amino-2-(furan-2-yl)-7H-pyrazolo[4,3-e][1,2,4]triazolo[1,5-c]pyrimidin-7-yl)-N—((R)-2-hydroxypropyl)-2-phenylpropanamide] had an IC50 of 22.6 nM. Turning to `Nc1nc2c(cnn2C(C(=O)NC2CCCC2)c2ccccc2)c2nc(-c3ccco3)nn12` (stereo not drawn) [Example 12, 2-(5-amino-2-(furan-2-yl)-7H-pyrazolo[4,3-e][1,2,4]triazolo[1,5-c]pyrimidin-7-yl)-N-cyclopentyl-2-phenylacetamide], 10.2 nM corresponded to half-maximal inhibition (IC50). The value for `CC(C(=O)N[C@@H]1CCCOC1)(c1ccccc1)n1ncc2c1nc(N)n1nc(-c3ccco3)nc21` (stereo partly drawn) [Example 60, 2-(5-amino-2-(furan-2-yl)-7H-pyrazolo[4,3-e][1,2,4]triazolo[1,5-c]pyrimidin-7-yl)-2-phenyl-N—((R)-tetrahydro-2H-pyran-3-yl)propanamide] was 8.2 nM. Consider `Cc1ccnc(CNC(=O)[C@@](C)(c2ccccc2)n2ncc3c2nc(N)n2nc(-c4ccco4)nc32)c1` [Example 110B, (R)-2-(5-amino-2-(furan-2-yl)-7H-pyrazolo[4,3-e][1,2,4]triazolo[1,5-c]pyrimidin-7-yl)-N-((4-methylpyridin-2-yl)methyl)-2-phenylpropanamide], for which the IC50 stood at 2.9 nM. The value for `C[C@](C(=O)N[C@H]1C[C@@H](O)C1)(c1ccccc1)n1ncc2c1nc(N)n1nc(-c3ccco3)nc21` [Example 104B, (R)-2-(5-amino-2-(furan-2-yl)-7H-pyrazolo[4,3-e][1,2,4]triazolo[1,5-c]pyrimidin-7-yl)-(cis)-N-(3-hydroxycyclobutyl)-2-phenylpropanamide] was 9.1 nM. The value for `CC(C(=O)NCCN1CCNCC1)(c1ccccc1)n1ncc2c1nc(N)n1nc(-c3ccco3)nc21` (stereo not drawn) [Example 45, 2-(5-amino-2-(furan-2-yl)-7H-pyrazolo[4,3-e][1,2,4]triazolo[1,5-c]pyrimidin-7-yl)-2-phenyl-N-(2-(piperazin-1-yl)ethyl)propanamide] was 22.4 nM; that for `CC(C(=O)NC1CCOCC1)(c1ccccc1)n1ncc2c1nc(N)n1nc(-c3ccco3)nc21` (stereo not drawn) [Example 98, 2-(5-amino-2-(furan-2-yl)-7H-pyrazolo[4,3-e][1,2,4]triazolo[1,5-c]pyrimidin-7-yl)-2-phenyl-N-(tetrahydro-2H-pyran-4-yl)propanamide] was 19.2 nM.

On to `COc1ccnc(CNC(=O)[C@@](C)(c2ccccc2)n2ncc3c2nc(N)n2nc(-c4ccco4)nc32)c1` [Example 114B, (R)-2-(5-amino-2-(furan-2-yl)-7H-pyrazolo[4,3-e][1,2,4]triazolo[1,5-c]pyrimidin-7-yl)-N-((4-methoxypyridin-2-yl)methyl)-2-phenylpropanamide], for which the IC50 was determined as 4.6 nM. Take `CC(C(=O)NCCO)(c1ccccc1)n1ncc2c1nc(N)n1nc(-c3ccco3)nc21` (stereo not drawn) [Example 55, 2-(5-amino-2-(furan-2-yl)-7H-pyrazolo[4,3-e][1,2,4]triazolo[1,5-c]pyrimidin-7-yl)-N-(2-hydroxyethyl)-2-phenylpropanamide]: the concentration for half-maximal inhibition (IC50) was determined as 13.8 nM.

Compound `Nc1nc2c(cnn2C(C(=O)NC2CCOCC2)c2ccccc2)c2nc(-c3ccco3)nn12` (stereo not drawn) [Example 11, 2-(5-amino-2-(furan-2-yl)-7H-pyrazolo[4,3-e][1,2,4]triazolo[1,5-c]pyrimidin-7-yl)-2-phenyl-N-(tetrahydro-2H-pyran-4-yl)acetamide] returned an IC50 of 36 nM. Compound `CN1CCN(CCNC(=O)C(C)(c2ccccc2)n2ncc3c2nc(N)n2nc(-c4ccco4)nc32)CC1` (stereo not drawn) [Example 147, 2-(5-amino-2-(furan-2-yl)-7H-pyrazolo[4,3-e][1,2,4]triazolo[1,5-c]pyrimidin-7-yl)-N-(2-(4-methylpiperazin-1-yl)ethyl)-2-phenylpropanamide] came in with an IC50 of 24.7 nM.

As for `CC(C(=O)N[C@@H]1CC[C@H](O)C1)(c1ccccc1)n1ncc2c1nc(N)n1nc(-c3ccco3)nc21` (stereo partly drawn) [Example 135, 2-(5-amino-2-(furan-2-yl)-7H-pyrazolo[4,3-e][1,2,4]triazolo[1,5-c]pyrimidin-7-yl)-N-((1R,3S)-3-hydroxycyclopentyl)-2-phenylpropanamide], inhibition was half-maximal at 11.2 nM (IC50). Turning to `CC(C(=O)N[C@@H]1CCCNC1)(c1ccccc1)n1ncc2c1nc(N)n1nc(-c3ccco3)nc21` (stereo partly drawn) [Example 67, 2-(5-amino-2-(furan-2-yl)-7H-pyrazolo[4,3-e][1,2,4]triazolo[1,5-c]pyrimidin-7-yl)-2-phenyl-N—((R)-piperidin-3-yl)propanamide], 75.5 nM corresponded to half-maximal inhibition (IC50). The value for `COCCOc1ccc(N2CCC(NC(=O)C(C)(c3ccccc3)n3ncc4c3nc(N)n3nc(-c5ccco5)nc43)CC2)cc1` (stereo not drawn) [Example 46, 2-(5-amino-2-(furan-2-yl)-7H-pyrazolo[4,3-e][1,2,4]triazolo[1,5-c]pyrimidin-7-yl)-N-(1-(4-(2-methoxyethoxy)phenyl)piperidin-4-yl)-2-phenylpropanamide] was 10.9 nM; that for `CC(C(=O)NCc1ccccn1)(c1ccccc1)n1ncc2c1nc(N)n1nc(-c3ccco3)nc21` (stereo not drawn) [Example 66, 2-(5-amino-2-(furan-2-yl)-7H-pyrazolo[4,3-e][1,2,4]triazolo[1,5-c]pyrimidin-7-yl)-2-phenyl-N-(pyridin-2-ylmethyl)propanamide] was 6.2 nM.

For `CC(C(=O)N[C@H]1CC[C@@H](O)CC1)(c1ccccc1)n1ncc2c1nc(N)n1nc(-c3ccco3)nc21` (relative stereo) [Example 76, 2-(5-amino-2-(furan-2-yl)-7H-pyrazolo[4,3-e][1,2,4]triazolo[1,5-c]pyrimidin-7-yl)-(cis)-N-(4-hydroxycyclohexyl)-2-phenylpropanamide], 5.2 nM corresponded to half-maximal inhibition (IC50).

`Cc1cccc(CNC(=O)[C@@](C)(c2ccccc2)n2ncc3c2nc(N)n2nc(-c4ccco4)nc32)n1` [Example 108B, (R)-2-(5-amino-2-(furan-2-yl)-7H-pyrazolo[4,3-e][1,2,4]triazolo[1,5-c]pyrimidin-7-yl)-N-((6-methylpyridin-2-yl)methyl)-2-phenylpropanamide] gave a half-maximal inhibitory concentration (IC50) of 2.5 nM. With `CC(C(=O)N[C@H]1CC[C@](C)(O)CC1)(c1ccccc1)n1ncc2c1nc(N)n1nc(-c3ccco3)nc21` (stereo partly drawn) [Example 69, 2-(5-amino-2-(furan-2-yl)-7H-pyrazolo[4,3-e][1,2,4]triazolo[1,5-c]pyrimidin-7-yl)-(cis)-N-(4-hydroxy-4-methylcyclohexyl)-2-phenylpropanamide], the half-inhibitory concentration (IC50) is 10.5 nM.

`CC(C(=O)NC[C@@H]1CCCO1)(c1ccccc1)n1ncc2c1nc(N)n1nc(-c3ccco3)nc21` (stereo partly drawn) [Example 51, 2-(5-amino-2-(furan-2-yl)-7H-pyrazolo[4,3-e][1,2,4]triazolo[1,5-c]pyrimidin-7-yl)-2-phenyl-N—(((S)-tetrahydrofuran-2-yl)methyl)propanamide] gave an IC50 of 2.7 nM.

In the case of `CCC(C(=O)NCC1(O)COC1)(c1ccccc1)n1ncc2c1nc(N)n1nc(-c3ccco3)nc21` (stereo not drawn) [Example 103, 2-(5-amino-2-(furan-2-yl)-7H-pyrazolo[4,3-e][1,2,4]triazolo[1,5-c]pyrimidin-7-yl)-N-((3-hydroxyoxetan-3-yl)methyl)-2-phenylbutanamide], the IC50 amounted to 6.1 nM. `Nc1nc2c(cnn2C(C(=O)NCc2ccccc2OC(F)(F)F)c2ccccc2)c2nc(-c3ccco3)nn12` (stereo not drawn) [Example 8, 2-(5-amino-2-(furan-2-yl)-7H-pyrazolo[4,3-e][1,2,4]triazolo[1,5-c]pyrimidin-7-yl)-2-phenyl-N-(2-(trifluoromethoxy)benzyl)acetamide] yielded an IC50 of 2 nM.

`C[C@](C(=O)O)(c1ccccc1)n1ncc2c1nc(N)n1nc(-c3ccco3)nc21` [Intermediate-Ib, (R)-2-(5-amino-2-(furan-2-yl)-7H-pyrazolo[4,3-e][1,2,4]triazolo[1,5-c]pyrimidin-7-yl)-2-phenylpropanoic acid]: 567 nM corresponded to half-maximal inhibition (IC50). As to `CC1(O)CCC(NC(=O)[C@](C)(c2ccccc2)n2ncc3c2nc(N)n2nc(-c4ccco4)nc32)CC1` (stereo in doubt) [Example 33A, (S)-2-(5-amino-2-(furan-2-yl)-7H-pyrazolo[4,3-e][1,2,4]triazolo[1,5-c]pyrimidin-7-yl)-(trans)-N-(4-hydroxy-4-methylcyclohexyl)-2-phenylpropanamide], the IC50 is 13.2 nM.

As for `CC(C(=O)NCC1(O)COC1)(c1cccnc1)n1ncc2c1nc(N)n1nc(-c3ccco3)nc21` (stereo not drawn) [Example 89, 2-(5-amino-2-(furan-2-yl)-7H-pyrazolo[4,3-e][1,2,4]triazolo[1,5-c]pyrimidin-7-yl)-N-((3-hydroxyoxetan-3-yl)methyl)-2-(pyridin-3-yl)propanamide], half-maximal inhibition (IC50) was put at 767 nM. In turn, `Nc1nc2c(cnn2C(C(=O)N[C@H]2CCCC[C@H]2O)c2ccccc2)c2nc(-c3ccco3)nn12` (stereo partly drawn) [Example 91, 2-(5-amino-2-(furan-2-yl)-7H-pyrazolo[4,3-e][1,2,4]triazolo[1,5-c]pyrimidin-7-yl)-N-((1S,2R)-2-hydroxycyclohexyl)-2-phenylacetamide] displayed an IC50 of 15.1 nM. For the compound `C[C@](C(=O)N[C@@H]1CCCC[C@@H]1O)(c1ccccc1)n1ncc2c1nc(N)n1nc(-c3ccco3)nc21` [Example 58B, (R)-2-(5-amino-2-(furan-2-yl)-7H-pyrazolo[4,3-e][1,2,4]triazolo[1,5-c]pyrimidin-7-yl)-N-((1R,2S)-2-hydroxycyclohexyl)-2-phenylpropanamide], the IC50 turned out to be 1.3 nM.

With `CC(=O)O[C@H]1CC[C@@H](NC(=O)[C@@](C)(c2ccccc2)n2ncc3c2nc(N)n2nc(-c4ccco4)nc32)CC1` [Example 151B, (cis)-4-((R)-2-(5-amino-2-(furan-2-yl)-7H-pyrazolo[4,3-e][1,2,4]triazolo[1,5-c]pyrimidin-7-yl)-2-phenylpropanamido)cyclohexyl acetate], the IC50 was 2 nM.
